Literature values in patent US20090048317A1, “Formulations of candesartan” (priority 2007, published 2009).

Conditions: in water and in methanol

solubility: sparingly soluble
Structure (SMILES): CCOc1nc2cccc(C(=O)OC(C)OC(=O)OC3CCCCC3)c2n1Cc1ccc(-c2ccccc2-c2nnn[nH]2)cc1 (racemic) [Candesartan cilexetil, (±)-1-[[(cyclohexyloxy)carbonyl]oxy]ethyl-2-ethoxy-1-[[′-(1H-tetrazol-5-yl)[1,1-biphenyl]-4-yl]methyl]-1H-benzimidazole-7-carboxylate]
